Measured values from patent US20250109151A1, “SILYL-LIPID N-ACYL L-HOMOSERINE LACTONES AS QUORUM SENSING MOLECULES” (The Regents of the University of California, priority 2022, published 2025).

Key:
TNF-α release = conditions: LPS-induced model, at 30 min; cited from earlier work
[1] = cited from earlier work
LasR [2] = molecular target: T1, LasR (Pseudomonas aeruginosa, UniProt P25084); assay: cell-based; conditions: for Emax: read-out: Maximum Activation (%); for designation of the sample in the LasR agonism table: words in brackets after the sample code
T1 construct: expressed in transfected cells; host or cells: E. coli (reporter strain)
Procedure: 15 compounds were assayed for LasR agonism using a beta-glo reporter assay in E. coli.

LasR [3] = molecular target: T1, LasR; assay: LasR antagonism assay; assay type: cell-based; conditions: for Emax: read-out: Maximum Activation (%)
Procedure: 3 compounds were assayed for LasR antagonism.
The IC50, […], and Max Activation for each sample is reported below.

T1 sequence (P25084 whole entry): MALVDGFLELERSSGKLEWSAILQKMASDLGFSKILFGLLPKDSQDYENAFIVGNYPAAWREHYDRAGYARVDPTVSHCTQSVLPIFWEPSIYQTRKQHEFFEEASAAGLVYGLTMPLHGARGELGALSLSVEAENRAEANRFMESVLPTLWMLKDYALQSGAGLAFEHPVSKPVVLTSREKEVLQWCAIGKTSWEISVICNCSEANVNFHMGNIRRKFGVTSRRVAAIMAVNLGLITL

SMILES	Emax (LasR [2]) [%]	also measured
Cc1ccc(-n2nc(C(C)(C)C)cc2NC(=O)Nc2ccc(OCCN3CCOCC3)c3ccccc23)cc1 [BIRB-796]		TNF-α suppression (TNF-α release): 41%
O=C(O)[C@@H]1CCCN1C(=O)OCC1c2ccccc2-c2ccccc21 [Fmoc-Pro]		Log P [1]: 0.094
C[Si]1(C)CC(C(=O)O)N(C(=O)OCC2c3ccccc3-c3ccccc32)C1 (stereo not drawn) [Fmoc-Sip]		Log P [1]: 1.3
CCCCCCCC[Si](C)(C)CCCCC(=O)N[C@H]1CCOC1=O [KMM 5-55-2, (S)-5-(dimethyl(octyl)silyl)-N-(2-oxotetrahydrofuran-3-yl)pentanamide]	101	
CC[Si](CC)(CC)CCCCC(=O)N[C@H]1CCOC1=O [KMM 5-56-2, (S)-N-(2-oxotetrahydrofuran-3-yl)-5-(triethylsilyl)pentanamide]	94.3	
C[Si](C)(CCCCC(=O)N[C@H]1CCOC1=O)c1ccccc1 [LSD 1-32, (S)-5-(dimethyl(phenyl)silyl)-N-(2-oxotetrahydrofuran-3-yl)pentanamide]	96.1	
CCCC[Si](C)(C)CCCCC(=O)N[C@H]1CCOC1=O [LSD 1-34, (S)-5-(butyldimethylsilyl)-N-(2-oxotetrahydrofuran-3-yl)pentanamide]	101	
CCCC[Si](C)(C)CCCCCCC(=O)N[C@H]1CCOC1=O [LSD 1-35, (S)-7-(butyldimethylsilyl)-N-(2-oxotetrahydrofuran-3-yl)heptanamide]	90.4	
CCCCCCCC[Si](C)(C)CCCCCCC(=O)N[C@H]1CCOC1=O [LSD 1-59, (S)-7-(dimethyl(octyl)silyl)-N-(2-oxotetrahydrofuran-3-yl)heptanamide]	25	designation of the sample in the LasR agonism table (LasR [2]): LSD 1-59 (inactive)
C[Si](C)(CCCCCCC(=O)N[C@H]1CCOC1=O)c1ccccc1 [LSD 2-47, (S)-7-(dimethyl(phenyl)silyl)-N-(2-oxotetrahydrofuran-3-yl)heptanamide]	99.7	
CCCC[Si](CCCC)(CCCC)CCCCC(=O)N[C@H]1CCOC1=O [LSD 2-65, (S)-N-(2-oxotetrahydrofuran-3-yl)-5-(tributylsilyl)pentanamide]	79.8	
C[Si](C)(CCCCC(=O)CC(=O)N[C@H]1CCOC1=O)c1ccccc1 [LSD 2-113, (S)-7-(dimethyl(phenyl)silyl)-3-oxo-N-(2-oxotetrahydrofuran-3-yl)heptanamide]	106	
C[Si](C)(C)O[Si](C)(C)CCCCC(=O)N[C@H]1CCOC1=O [LSD 2-120, (S)-N-(2-oxotetrahydrofuran-3-yl)-5-(1,1,3,3,3-pentamethyldisiloxaneyl)pentanamide]	94	
C[Si](C)(c1ccccc1)c1ccc(CC(=O)N[C@H]2CCOC2=O)cc1 [LSD 133, (S)-2-(4-(dimethyl(phenyl)silyl)phenyl)-N-(2-oxotetrahydrofuran-3-yl)acetamide]	9	EC50 (LasR [2]): 0.015 µM; designation of the sample in the LasR agonism table (LasR [2]): LSD 133 (antagonist); IC50 (LasR [3]): 14.6 µM; Emax (LasR [3]): 97.2%
CCCC[Si](C)(C)c1ccc(CC(=O)N[C@H]2CCOC2=O)cc1 [LSD 137, (S)-2-(4-(butyldimethylsilyl)phenyl)-N-(2-oxotetrahydrofuran-3-yl)acetamide]	14.1	designation of the sample in the LasR agonism table (LasR [2]): LSD 137 (antagonist); IC50 (LasR [3]): 9.3 µM; Emax (LasR [3]): 101%
CC[Si](CC)(CC)CCCCC(=O)CC(=O)N[C@H]1CCOC1=O [LSD-92, (S)-3-oxo-N-(2-oxotetrahydrofuran-3-yl)-7-(triethylsilyl)heptanamide]	86	
